In the assay the target is T1, Tyrosine-protein kinase JAK3 [781-1124] (Homo sapiens, UniProt P52333).
T1 construct: 781-1124
The experiment in a line: Phosphorylation Assay. As to conditions: pH 7.5. The procedure: Phosphorylation of the appropriate peptide substrate (fluorescently labeled Srctide) by recombinant JAK3 (catalytic domain, aa 781-1124) was measured in the presence and absence of different concentrations of test compounds. Test compound, enzyme, fluorescently labeled substrate, and cofactors (ATP and Mg2+) were combined in a well of a microtiter plate and incubated for 2 hours at 25° C. The composition of the reaction buffer was 100 mM HEPES pH 7.5, 5 mM MgCl2, 0.01% Triton-X 100, 0.1% Bovine Serum Albumin, and 1% DMSO. Enzyme concentration in the final reaction mixture was 0.5 nM while peptide substrate was at 1 uM. ATP was used at 1xKm concentration corresponding to 2 uM. Serial dilutions (3-fold steps) of compounds were prepared in DMSO. At the end of the incubation, the reaction was stopped by the addition of 20 mM EDTA. Substrate and product (i.e. phosphorylated substrate) were separated electrophoretically and both were quantified by fluorescence intensity.

T1 sequence (P52333 781-1124): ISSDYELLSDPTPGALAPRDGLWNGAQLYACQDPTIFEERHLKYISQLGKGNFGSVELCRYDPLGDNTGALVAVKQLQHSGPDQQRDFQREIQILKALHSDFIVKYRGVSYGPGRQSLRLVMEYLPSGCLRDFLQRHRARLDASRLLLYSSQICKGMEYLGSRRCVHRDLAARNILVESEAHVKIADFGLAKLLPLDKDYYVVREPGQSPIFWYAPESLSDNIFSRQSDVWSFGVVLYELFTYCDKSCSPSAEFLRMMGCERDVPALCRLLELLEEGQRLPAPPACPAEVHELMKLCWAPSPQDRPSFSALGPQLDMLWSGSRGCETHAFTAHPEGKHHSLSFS

Turning to `CC(C)C(=O)c1c[nH]c2ncc(-c3cccc(C=C(C#N)C(=O)N(C)C)c3)nc12` [US9187487, 37], the IC50 (usually the concentration needed to halve the response being measured) stood at 190 nM.
`CC(C)(C)C(=O)c1c[nH]c2ncc(Nc3ccc(C=C4SC(=O)NC4=O)cc3)nc12` [US9187487, 65]: the IC50 was found to be 4 nM.

Values taken from BindingDB's records for patent US9187487 (Principia Biopharma, 2015).
